Values joined by “and” are separate entries in the source; they are usually repeats but may differ in a detail not shown here. Identical values can stand only once.
Experiments:
Assay type in all cases: in vivo, dog
A. caninum [1] = assay: Canine vaccine trial with Ac-ASP-2, Ac-API, Ac-MEP-1, Ac-APR-1 in AS03, footpad challenge with 500 A. caninum L3
Procedure: The vaccine trial was designed to test Ac-API, Ac-ASP-2, Ac-MEP-1, Ac-APR-1 formulated with Adjuvant System 03 (AS03) obtained from GlaxoSmithKline (GSK). The rationale for selecting AS03 as an adjuvants is discussed elsewhere (Stoute et al, 1997). […] To make six doses of antigen formulated with AS03, […] of recombinant protein (0.3 ml of antigen at a concentration of 2 mg.ml^−1) was mixed with 1.2 ml of 20 mM Tris-HCl, 0.5 M NaCl, pH 7.9 and 1.5 ml of AS03; the contents of the tube were vortex mixed for 30 seconds then shaken at low speed for 10 minutes. Dogs were immunized with 100 g of formulated antigen in a final volume of 0.5 ml. ASO3 only control was prepared as described above, with PBS included instead of antigen. Formulation of GSK adjuvants were conducted according to the protocol provided by GSK. All injections were performed intramuscularly (IM). Test and control articles were prepared on the day of injection. All animals received 4 immunizations approximately 3 weeks apart.
A. caninum larvae were cultured from eggs collected in the feces of infected dogs. All hookworms in the infective challenge were approximately equal age (17±7 days post hatching). The species identity of the infective larvae were validated using PCR. All dogs were infected by the footpad method with the same dose of 500 L3 of A. caninum (Zhan et al, 2001). Larval challenge occurred on one of three consecutive days (at age 120+/−9 days). Fourteen-sixteen days after the final immunization, dogs were anesthetized using a combination of ketamine and xylazine (20 mg.kg^−1 and 10 mg.kg^−1 respectively), and 500 A. caninum L3 in a final volume of […] were applied to the footpad.

A. caninum [2] = assay: Canine vaccine trial with Ac-TMP, Ac-AP, Ac-APR-1, oral challenge with 400 A. caninum L3
Excerpt: Study dogs and animal husbandry: Following protocol approval by The George Washington University Institutional Animal Care and Use Committee (IACUC), purpose bred, parasite naïve, male beagles 8±1 week of age were purchased, identified by ear tattoo, and maintained in the AALAC (Association for Assessment and Accreditation of Laboratory Animal Care) accredited George Washington University Animal Research Facility. The dogs were housed in a room dedicated for the study, at a room temperature of 70±4° F., with 10-15 air changes per hour comprised of 100 percent fresh air, and 12 hr light cycles alternating with 12 hr dark cycles. The airflow and timer functions were monitored daily. The dogs were fed on a diet of Teklad Certified Dog Chow #8727, supplemented with a canned soft diet in the event of anorexia. The drinking water was piped from a filter plant and delivered via automatc water system; water analysis was performed by the U.S. Army Corps of Engineers. Water from the facilities automatic system is cultured for bacteria and fungi annually. The pens were flushed daily and sanitized every two weeks. Dogs within a given study group were permitted to live together and socialize prior to the hookworm larval challenge, but were caged individually post-infection. All dogs were quarantined for approximately one week before beginning the vaccine trial. Prior to vaccination a complete blood count (CBC), serum chemistries, and a pre-vaccination serum sample were obtained.
Vaccine study design and sample size: The vaccine trial was designed to test three different antigens, each formulated with alum, as well as an alum adjuvant control. A total of 24 dogs were randomly assigned into four groups comprised of 6 dogs each. The canine sample size was selected on the ability to detect a 40-50 percent reduction in the numbers of adult hookworms in the small intestines of the vaccinated group relative to control dogs, at a statistical power of 80 percent (alpha=0.05, two-tailed). The data were derived from the mean and standard deviation of adult hookworms previously recovered from age-matched dogs infected with 400 A. caninum L3 (Hotez et al, 2002).
Recombinant Antigens: Each group of 6 dogs was vaccinated with recombinant hookworm proteins expressed as fusion proteins either in Escherichia coli or in an insect cell line with baculovirus. Ac-AP (Cappello et al, 1995; 1996) and Ac-TMP, were expressed in E. coli as pET 28 (Novagen) fusion proteins containing a polyhistidine tag (Cappello et al, 1996). Ac-APR-1 (Harrop et al, 1996) was expressed in a baculovirus pBacPAK6 vector (Clontech), modified to contain a polyhistidine-encoding sequence and additional restriction enzyme sites (Brindley et al, 2001). Recombinant Ac-AP and Ac-TMP fusion proteins were then purified by nickel affinity chromatography, followed by a second step of purification. In the case of Ac-AP (Cappello et al, 1995; 1996), the recombinant protein was purified by mono-S (Amersham-Pharmacia) ion exchange chromatography, while Ac-TMP (Zhan et al, 2002) was purified by superdex 75 (Amersham-Pharmacia) gel filtration chromatography. Ac-APR-1 (Harrop et al, 1996) was purified by substrate affinity chromatography using pepstatin agarose (Brindley et al, 2001). The antigen stock protein concentration was determined by Pierce Micro BCA assay (Pierce Chemicals) or by the absorbance of the sample at […] using an extinction coefficient that was calculated from the deduced amino acid composition of the fusion protein. The amount of alum adsorbed protein in each dose of antigen was measured by the Pierce Micro BCA assay using a bovine serum albumin standard. The relative purity of each of the antigens relative to contaminating E. coli or insect cell proteins was determined by analysis on sodium dodecyl sulfate polyacrylamide gel electrophoresis (SDS-PAGE). […]

[3] = test system: antibody to recombinant proteins; assay: Pre-challenge antibody titer ELISA, trial with Ac-ASP-2, Ac-API, Ac-MEP-1, Ac-APR-1 in AS03
Procedure: The vaccine trial was designed to test Ac-API, Ac-ASP-2, Ac-MEP-1, Ac-APR-1 formulated with Adjuvant System 03 (AS03) obtained from GlaxoSmithKline (GSK). The rationale for selecting AS03 as an adjuvants is discussed elsewhere (Stoute et al, 1997). The ten purpose bred beagles were randomized into five arms: immunized with the adjuvant-formulated recombinant proteins or adjuvant only (control). To make six doses of antigen formulated with AS03, […] of recombinant protein (0.3 ml of antigen at a concentration of 2 mg.ml^−1) was mixed with 1.2 ml of 20 mM Tris-HCl, 0.5 M NaCl, pH 7.9 and 1.5 ml of AS03; the contents of the tube were vortex mixed for 30 seconds then shaken at low speed for 10 minutes. Dogs were immunized with 100 g of formulated antigen in a final volume of 0.5 ml. ASO3 only control was prepared as described above, with PBS included instead of antigen. Formulation of GSK adjuvants were conducted according to the protocol provided by GSK. All injections were performed intramuscularly (IM). Test and control articles were prepared on the day of injection. All animals received 4 immunizations approximately 3 weeks apart.
Beagles were immunized with formulated Ac-ASP-2 as previously described (Loukas et al, 2004). The vaccines were administered IM three times beginning at age 62+/−4 days. Boosts were administered to the dogs at intervals of 21 days. Blood was drawn at least once every 21 days and serum was separated from cells by centrifugation. Each animal's specific antibody response was evaluated by indirect ELISA using serum taken prior to the infective challenge (Loukas et al, 2004). Recombinant Ac-ASP-2 was coated onto microtiter plates at a concentration of 5 g.ml^−1. Dog sera were titrated between 1:100 and 1:2×10^6 to determine endpoint titers. Anti-canine IgG1, IgG2 and IgE antibodies conjugated to horse-radish peroxidase (Bethyl Laboratories) were used at a dilution of 1:1,000.

A. caninum [4] = assay: Canine vaccine trial HV-12, percutaneous challenge with 500 A. caninum L3
Procedure: (§1) Brief Outline of Study Sections: Purpose bred beagles were randomized into five groups. […] groups were given one of three candidate vaccines: Ac-Cystatin, Ac-MTP-2 and Ac-GST in combination with the adjuvant ASO3. One group will serve as the negative control receiving the adjuvant only. Another group will be a positive control immunized with irradiated infective larvae. Each animal's specific antibody response was evaluated by direct ELISA using serum taken prior to the infective challenge. Cellular immune responses were assessed by peripheral (blood cells) lymphoproliferative responses to specific recombinant antigens and/or crude extract of infective larvae (L3) or adult worms. Local cellular immune responses were performed post mortem with lymphocytes extracted from mesenteric lymph nodes and, if considered, spleen. After immunization, animals were challenged with a known number dose of infective third stage larvae of A. caninum. Quantitative ova counts, used to evaluate worm burden, were determined from fecal samples collected three times per week. […] Tissues from different organs were examined macro and microscopically to assess any consequence of the vaccine, parasite or immune related lesions.
(§2) Administration of Test and Control Articles: The vaccines and adjuvant were administered intramuscularly (IM) […] beginning when the dogs are 62+/−4 days old. The vaccines are boosted at 21+/−3-day intervals. Four doses of the vaccines were given 21 days apart (days 0, 21, 42, and […]). The dogs were challenged percutaneously with 500 A. caninum L3, 14 days after the final vaccination.
Challenge Infection: Ancylostoma caninum larvae were cultured from the eggs collected in the feces of infected dogs. All hookworms in the infective challenge were approximately equal age (17±7 days). The species identity of the infective larva dose were validated using PCR DNA amplification and specific oligonucleotide primers. Overnight-collected feces of A. caninum-infected dogs were cultured, extracted and counted. All dogs were infected by the footpad method with the same dose (500+/−5%, of 3rd stage larvae of A. caninum. Larval challenge occurs on one of three consecutive days (at age 120+/−9 days) in 5 series. To minimize the difference in the infective L3 doses, each series included one dog from each (A-E group). […]
Adult Worm Count. Adult worms retained in the small and large intestines were collected. The small and large bowel will be collected and the small intestine will be suspended (the large bowel will not be suspended) in a container and incubated for at least two hours at 35° C. saline to collect the adult parasites. The adult worms were separated from the intestinal contents, counted, and preserved in formalin for subsequent count and analysis of sex, length and weight. Results and Analysis

[5] = test system: antigen-specific IgG1 and IgG2; assay: Antibody titers in HV-12 (Ac-CYS, Ac-MTP-2, Ac-GST in AS03, irradiated L3)
Procedure: as §1, §2
Serum Samples for Quantitative ELISA Antibody Titers: Animals treated with vaccines containing foreign proteins develop an immune response resulting in an increased level of high affinity serum antibodies that are directed against the antigen. […] White blood cells were collected for immunological measurements nine (9) days after the last boost and at the time of euthanasia to address the cellular immune response status and cytokine production upon in vitro restimulation of lymphocytes.

Ac-APR-1: A. caninum aspartic protease (cathepsin), SEQ ID NO: 50; baculovirus expressed
worm burdens, Maximum (A. caninum [1]; 5 dogs): 250.00 | worm burdens, Minimum (A. caninum [1]; 5 dogs): 119.00 | worm burdens, Mean (A. caninum [1]; 5 dogs, ASO3 control 203.8000): 177.0000 | worm burdens, Median (A. caninum [1]; 5 dogs, ASO3 control 215.0000): 168.0000 | worm burden reduction in a single dog (A. caninum [1]; dog A3 (ASP-2 group), dog D2 (APR-1 group), versus control mean): 42% | worm burden, Colon, Male, Average (A. caninum [1]; group average, AS03 control 5): 4 | worm burden, Colon, Female, Average (A. caninum [1]; group average, AS03 control 9): 6 | worm burden, Intestine, Female, Average (A. caninum [1]; group average, AS03 control 95): 79 | worm burden, Intestine, Male, Average (A. caninum [1]; group average, AS03 control 96): 83 | worm burden, Total, Average (A. caninum [1]; group average, AS03 control 204): 177 | worm burden, Colon, Female (A. caninum [1]; individual dogs): 1 and 18 and 3 and 8 and 0 | worm burden, Colon, Male (A. caninum [1]; individual dogs): 0 (2×) and 11 and 3 and 5 | worm burden, Intestine, Female (A. caninum [1]; individual dogs): 76 and 41 and 69 and 87 and 122 | worm burden, Intestine, Male (A. caninum [1]; individual dogs): 65 and 47 and 131 and 124 and 49 | worm burden, Total (A. caninum [1]; individual dogs): 168 and 119 and 146 and 202 and 250 | fecal eggs (fecundity), in words (A. caninum [1]; relative to the control group): significant reduction in fecal eggs | % Decrease of adult hookworms in the small intestines relative to alum-injected dogs (A. caninum [2]; group): 18% | % Increase of adult hookworms in the colons relative to alum-injected dogs (A. caninum [2]; group): 300% | adult A. caninum hookworms in the colons, Median (A. caninum [2]; group median, alum control 4): 27 | adult hookworms in the small intestines, Median (A. caninum [2]; group median, alum control 180): 138 | ratio of adult hookworms in the small intestine relative to the colon (A. caninum [2]; vaccinated group, alum-injected dogs 43.9): 7.3 | antibody response, in words ([3]; AS03): only a single dog developed a substantial antibody titer | Pre-challenge antibody titer, IgG1, GEOMEAN ([3]; geometric mean of group): 100 | Pre-challenge antibody titer, IgG2, GEOMEAN ([3]; geometric mean of group): 562 | Pre-challenge antibody titer, IgG1 ([3]; individual dogs): 100 | Pre-challenge antibody titer, IgG2 ([3]; individual dogs): 500 (3×) and 4,500 and 100

B1: Ac-GST: A. caninum glutathione S transferase, SEQ ID NO: 77; Pichia pastoris expressed (protein, listed as Ancylostoma caninum)
chain: MVHYKLTYFNGRGLGECARQLFALADQQYEDIRVTHEDFPEIKPNLPFGQLPLLNEDGKELAQSNAINRYLARKFGFAGKTPFEEALVDSLADQMTDYRVEIKPFVYTAYGHQKFGDLETLKKDVMLPARDKFLGFITKFLKNNPSGFLVGDSVTWIDLLLAEHASDIQSKVPEYLEGFPEVKAHMEKVRSIPKLKKWIETRPETHF
worm burden reduction relative to AS03 controls (A. caninum [4]; dog, in vivo, listed as GST): 40% and 41% | Adult Hookworm Worm Counts, Intestine, Male, Average (A. caninum [4]; group average, AS03 control 64): 34 | Adult Hookworm Worm Counts, Intestine, Female, Average (A. caninum [4]; group average, AS03 control 71): 44 | Adult Hookworm Worm Counts, Total, Average (A. caninum [4]; group average, AS03 control 137): 83 | Adult Hookworm Worm Counts, Colon, Female (A. caninum [4]; individual dogs, listed as GST): 0 (2×) and 3 and 4 and 5 | Adult Hookworm Worm Counts, Colon, Male (A. caninum [4]; individual dogs, listed as GST): 0 (2×) and 4 and 7 and 2 | Adult Hookworm Worm Counts, Intestine, Female (A. caninum [4]; individual dogs, listed as GST): 81 and 26 and 36 (2×) and 41 | Adult Hookworm Worm Counts, Intestine, Male (A. caninum [4]; individual dogs, listed as GST): 50 and 34 and 19 and 33 (2×) | Adult Hookworm Worm Counts, Total (A. caninum [4]; individual dogs, listed as GST): 131 and 67 and 55 and 80 and 81 | Antibody titers, IgG1, GEOMEAN ([5]; geometric mean of group): 13,500 | Antibody titers, IgG2, GEOMEAN ([5]; geometric mean of group): 50,452 | Antibody titers, IgG1 ([5]; individual dogs, after four immunizations, L3 Extract = group E dogs vaccinated with irradiated L3): 13,500 | Antibody titers, IgG2 ([5]; individual dogs, after four immunizations, L3 Extract = group E dogs vaccinated with irradiated L3, listed as GST): 40,500 (4×) and 121,500

— patent publication US7303752B2, “Hookworm vaccine” (The George Washington University, priority 2001, dated 2007)
